Assay results: patent US20020183937A1, “Method for the generation of proteins with new enzymatic function” (priority 2001, published 2002)

Assays:
[1] = Steady state kinetics of PNPA hydrolysis by protozymes; type: biochemical; conditions: qualitative statement
[2] = Burst phase PNPA hydrolysis assay at high substrate concentration; conditions: 1.6 mM PNPA, 4 μM protein (FIG. 7)
Description: PZD2 was dialyzed extensively against 10 mM sodium phosphate buffer at pH 6.95. Kinetic experiments at 22° C. were started by the addition of substrate dissolved in acetonitrile to buffer solution with and without PZD2 (final protein concentration of 4 μM). Protein concentration was determined by UV absorbance in 6M guanidinium hydrochloride assuming an extinction coefficient of 12400 M^−1cm^−1 at 280 nm. Product concentration was determined by the change in absorbance at 400.5 nm assuming an extinction coefficient for deprotonated PNP of 19700 M^31 1cm^−1. Final acetronitrile concentration was 1% for all experiments. The steady state rate of hydrolysis by PZD2 was corrected for the buffer rate. Burst phase hydrolysis assays were performed at a substrate concentration of 1.6 mM. Protein concentration was 4 μM, with the exception of wild type thioredoxin. Wild type thioredoxin was assayed at 50 μM to improve signal to noise and extrapolated to a protein concentration of 4 μM. The dead time for this experiment was approximately 30 seconds.

[3] = target: T1, PZD2 (Escherichia coli, UniProt P0AA25, D27I/F13A/L18H/Y71A); test: Inhibition of PZD2 catalyzed PNPA hydrolysis; type: biochemical, E. coli
T1 construct: made in house; host or cells: E. coli BL21 (DE3), vector pET-11a
Source text: With this in mind, we assayed the inhibitory effects of p-nitrophenol glycerol (PNPG), a highly soluble compound with structural similarity to PNPA.

T1 sequence (P0AA25 2-109 F13A/L18H/D27I/Y71A): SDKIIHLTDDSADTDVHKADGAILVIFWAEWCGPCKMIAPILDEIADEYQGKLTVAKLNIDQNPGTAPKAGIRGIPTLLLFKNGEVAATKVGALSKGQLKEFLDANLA

Wild type thioredoxin: thioredoxin protein from E. coli, scaffold; wild type sequence, H at position 6 with no binding site mutations
enzyme-like activity toward PNPA hydrolysis [1]: essentially catalytically inert
enzyme-like activity toward PNPA hydrolysis ([1]; listed as wild type protein): does not exhibit enzyme-like activity
catalytic activity (PNPA hydrolysis) [2]: essentially inactive

p-nitrophenol glycerol [PNPG]
Ki ([3]; fixed substrate concentration, read-out: K1 (Dixon analysis of inhibition)): 20 mM
mode of inhibition (double reciprocal analysis) ([3]; presence and absence of inhibitor, 10 mM PNPG (FIG. 9)): competitive inhibition

O=[N+]([O-])c1ccc(OP(=O)(O)O)cc1 [p-nitrophenyl phosphate]
inhibition ([3]; concentrations up to 20 mM): did not show detectable inhibition
